# Literature values in patent US20030212034A1, “Method of treatment of obesity and paralyzed muscle and ergogenic aids” (priority 2002, published 2003).
# Tested on: AMPK
# Conditions: analogues of 5′-AMP; Hardie & Carling 1997; cited from earlier work
row,SMILES,potency of AMPK activation in vitro
1,Nc1ncnc2c([C@@H]3O[C@H](COP(=O)(O)O)[C@@H](O)[C@H]3O)[nH]nc12 [Formycin A 5′-monophosphate],less potently
2,NC(=O)c1ncn([C@@H]2O[C@H](COP(=O)(O)O)[C@@H](O)[C@H]2O)c1N [ZMP],less potently
3,Nc1ncnc2c1ncn2[C@@H]1O[C@H](COP(N)(=O)O)[C@@H](O)[C@H]1O [adenosine 5′-phosphoramidate],more potently
4,Nc1ncnc2c1ncn2[C@@H]1O[C@H](COP(O)(O)=S)[C@@H](O)[C@H]1O [adenosine-5′-thiomonophosphate],more potently
